# Experimental data: paper doi:10.1101/2024.08.19.608619, “Discovery of potent SARS-CoV-2 nsp3 macrodomain inhibitors uncovers lack of translation to cellular antiviral response” (bioRxiv, 2024)
# Tests used:
# in vitro = assay: in vitro; design: Cytotoxicity in iPSC-derived pneumocytes, CC50; conditions: human, ipsc-derived pneumocytes; ASAP-0008327-001=ASAP-0011176-001; read-out: 50.0
# MERS-CoV = assay type: cell-based; conditions: Vero E6/TMPRSS2 MERS-CoV antiviral effect with P-gp inhibitor
# CYP1A2 = CYP1A2 (Homo sapiens, UniProt P05177); assay: CYP inhibition; assay type: in vitro ADME; conditions: human; isoform 1A2; In vitro CYP inhibition pooled
# Description: (§1) Supplement media-1.zip/CYP_Inhibition.csv, table | column: ic50; potency
# CYP2D6 = CYP2D6 (Homo sapiens, UniProt P10635); assay: CYP inhibition; assay type: in vitro ADME; conditions: human; isoform 2D6; In vitro CYP inhibition pooled
# Description: as §1
# CYP3A4 = CYP3A4 (Homo sapiens, UniProt P08684); assay: CYP inhibition; assay type: in vitro ADME; conditions: human; isoform 3A4; In vitro CYP inhibition pooled
# Description: as §1
# CYP2C19 = CYP2C19 (Homo sapiens, UniProt P33261); assay: CYP inhibition; assay type: in vitro ADME; conditions: human; isoform 2C19; In vitro CYP inhibition pooled
# Description: as §1
# kinase panel = assay: Eurofins kinase panel; assay type: biochemical; conditions: test compound 10 uM
# [1] = iPSC pneumocytes cytotoxicity; assay type: cell-based; conditions: protocol iPSC pneumocytes cytotoxicity
# Description: Supplement media-1.zip/Cytotoxicity.csv, table | column: cc10; cc50; perc_min_measured; perc_max_measured
# [2] = target: HiBiT-tagged nsp3-mac1 in HEK293 cells (Severe acute respiratory syndrome coronavirus 2, UniProt P0DTD1); assay: HiBiT Cellular Thermal Shift Assay / isothermal dose response thermal shift assay (ITDRF CETSA); assay type: cell-based, SARS-CoV-2; conditions: fixed temperature 50.6°C
# Procedure: A PCR product encoding SARS Cov-2 macrodomain residues 2 to 176 was cloned into the XhoI and BamHI restriction sites of the pBIT3.1-N vector (Promega) which has an N-terminal 11 amino acid HiBiT tag.
# A PCR product encoding SARS Cov-2 macrodomain residues 1 to 176 was cloned into the HindIII and XhoI restriction sites of the pBIT3.1-C vector(Promega) which has an C-terminal 11 amino acid HiBiT tag.
# Both constructs were evaluated for CETSA experiments and found to give similar results. For the results described the CHIBIT tag was used.
# HiBiT Cellular Thermal Shift Assay (HiBiT-CETSA). To assess the engagement of nsp3-mac1 in intact cells, a HiBiT Cellular Thermal Shift Assay was conducted as described by Ramachandran et al. ([23]). The Nano-Glo HiBiT lytic detection system (Promega) was used according to the manufacturer’s instructions. Briefly, HEK293 cells were reverse-transfected with HiBiT-tagged nsp3-mac1 at a concentration of 400,000 cells/mL using the FuGENE transfection reagent (Promega). Following a 24-hour incubation period, the cells were trypsinized and resuspended in assay medium at the same concentration.
# For CETSA, the cells were divided into two groups: one treated with 30 μM of the compounds and the other with DMSO as a control. […] The luminescence signals were measured using a PHERAstar FSX and analyzed with GraphPad Prism software (v.9 or v.10).
# CYP2D6, sequence (P10635 whole entry, canonical isoform): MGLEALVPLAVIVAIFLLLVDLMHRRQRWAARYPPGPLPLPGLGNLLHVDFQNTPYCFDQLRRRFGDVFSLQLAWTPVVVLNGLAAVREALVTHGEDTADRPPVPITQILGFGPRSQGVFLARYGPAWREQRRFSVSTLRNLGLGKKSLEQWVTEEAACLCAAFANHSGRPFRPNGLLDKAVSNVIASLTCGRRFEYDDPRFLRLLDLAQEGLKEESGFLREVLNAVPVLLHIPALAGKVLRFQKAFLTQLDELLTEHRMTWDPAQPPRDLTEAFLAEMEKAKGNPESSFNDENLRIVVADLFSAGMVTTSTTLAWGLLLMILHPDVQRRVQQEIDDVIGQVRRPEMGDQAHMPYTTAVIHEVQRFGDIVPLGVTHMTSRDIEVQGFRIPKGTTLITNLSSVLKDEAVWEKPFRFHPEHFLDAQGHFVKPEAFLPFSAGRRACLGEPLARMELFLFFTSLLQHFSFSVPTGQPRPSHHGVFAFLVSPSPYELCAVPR
# CYP1A2, sequence (P05177 2-516): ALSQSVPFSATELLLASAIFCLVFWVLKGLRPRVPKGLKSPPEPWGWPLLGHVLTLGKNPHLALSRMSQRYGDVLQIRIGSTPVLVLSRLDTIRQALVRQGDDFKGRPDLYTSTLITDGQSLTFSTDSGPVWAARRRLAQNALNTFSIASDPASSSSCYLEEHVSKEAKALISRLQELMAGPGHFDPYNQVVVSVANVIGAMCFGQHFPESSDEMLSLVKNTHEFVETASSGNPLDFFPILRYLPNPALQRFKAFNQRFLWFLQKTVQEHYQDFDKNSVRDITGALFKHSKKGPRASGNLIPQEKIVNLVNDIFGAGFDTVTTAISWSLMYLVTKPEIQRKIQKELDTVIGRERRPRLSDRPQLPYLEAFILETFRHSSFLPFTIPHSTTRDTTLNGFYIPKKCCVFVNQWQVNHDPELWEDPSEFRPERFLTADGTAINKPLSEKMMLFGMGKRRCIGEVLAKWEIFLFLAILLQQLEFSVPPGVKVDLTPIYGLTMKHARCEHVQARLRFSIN
# CYP2C19, sequence (P33261 whole entry, canonical isoform): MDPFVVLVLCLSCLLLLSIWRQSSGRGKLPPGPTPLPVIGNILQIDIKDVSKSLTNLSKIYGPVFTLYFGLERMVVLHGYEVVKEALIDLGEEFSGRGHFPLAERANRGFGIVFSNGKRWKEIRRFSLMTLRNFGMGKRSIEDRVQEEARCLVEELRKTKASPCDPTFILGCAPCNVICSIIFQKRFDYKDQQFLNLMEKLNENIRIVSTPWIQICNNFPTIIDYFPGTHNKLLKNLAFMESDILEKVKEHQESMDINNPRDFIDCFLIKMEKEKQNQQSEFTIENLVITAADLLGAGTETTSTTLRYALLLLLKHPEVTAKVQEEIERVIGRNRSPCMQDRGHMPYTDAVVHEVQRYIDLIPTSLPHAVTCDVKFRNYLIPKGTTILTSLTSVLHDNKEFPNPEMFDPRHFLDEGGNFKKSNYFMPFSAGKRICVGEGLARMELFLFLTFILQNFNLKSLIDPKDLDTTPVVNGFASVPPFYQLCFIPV
# CYP3A4, sequence (P08684 2-503): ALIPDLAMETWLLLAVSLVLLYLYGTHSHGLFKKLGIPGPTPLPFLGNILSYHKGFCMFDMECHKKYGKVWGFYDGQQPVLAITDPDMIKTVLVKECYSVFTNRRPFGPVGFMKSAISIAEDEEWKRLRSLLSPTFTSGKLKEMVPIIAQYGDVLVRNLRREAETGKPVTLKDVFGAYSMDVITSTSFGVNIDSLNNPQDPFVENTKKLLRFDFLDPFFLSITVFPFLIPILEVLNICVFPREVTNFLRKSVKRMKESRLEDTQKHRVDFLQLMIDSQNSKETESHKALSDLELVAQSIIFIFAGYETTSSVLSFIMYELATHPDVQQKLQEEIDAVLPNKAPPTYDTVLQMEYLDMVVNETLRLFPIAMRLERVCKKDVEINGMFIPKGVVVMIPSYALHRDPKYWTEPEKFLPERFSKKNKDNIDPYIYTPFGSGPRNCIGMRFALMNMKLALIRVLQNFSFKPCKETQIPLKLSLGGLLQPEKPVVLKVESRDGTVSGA
structure (smiles),measurement,setting,value
CNCc1cc(-c2cc3c(N[C@@H](c4ccc5c(c4)S(=O)(=O)CCC5)C(C)C)ncnc3[nH]2)co1 [ASAP-0011176],CC50,in vitro,> 50 µM
Cn1ncc(-c2cc3c(N[C@@H](c4ccc5c(n4)OCCO5)C(C)(C)C)ncnc3[nH]2)c1C#N [ASAP-0011221],EC50,MERS-CoV,> 5 µM
same,EC90,MERS-CoV,> 5 µM
same,perc_max_measured,MERS-CoV; maximum measured response,128.492%
same,perc_min_measured,MERS-CoV; minimum measured response,99.797%
CC(C)C(Nc1ncnc2[nH]c(C(=O)NC3CCN(C)C3)cc12)c1ccc2c(c1)S(=O)(=O)CCC2 (stereo not shown) [ASAP-0011198],IC50,CYP1A2,> 50 µM
same,IC50,CYP2D6,> 50 µM
same,IC50,CYP3A4,> 50 µM
same,IC50,CYP2C19,> 50 µM
CC(C)C(Nc1ncnc2[nH]ccc12)c1ccc2c(c1)S(=O)(=O)CCC2 (stereo not shown) [ASAP-0008327],perc_activity,"kinase panel; kinase ALK(h), ATP 200 uM",93%
same,perc_activity,"kinase panel; kinase AMPKα1(h), ATP 45 uM",94%
same,perc_activity,"kinase panel; kinase ASK1(h), ATP 200 uM",108%
same,perc_activity,"kinase panel; kinase Abl(h), ATP 45 uM",93%
same,perc_activity,"kinase panel; kinase Aurora-A(h), ATP 15 uM",57%
same,CC50,[1],> 50 µM
Cc1nn(C)cc1-c1cc2c(NC(c3ccc4c(c3)S(=O)(=O)CCC4)C(C)C)ncnc2[nH]1 (stereo not shown) [ASAP-0011446],EC50,[2],0.014 µM
